Reference: PubChem BioAssay AID1259407 (Chemical Carcinogenesis Research Information System (CCRIS), 2018)
Calls of active or inactive are those of the source. How the calls were made is not given here.

Tested on: CCRIS mutagenicity, Ames/micronucleus/aberration tests
Test: CCRIS mutagenicity studies
[1] = Test System: AMES SALMONELLA TYPHIMURIUM, Strain/Indicator: TA102, Metabolic Activation: NONE, Method: STANDARD PLATE
[2] = Test System: AMES SALMONELLA TYPHIMURIUM, Strain/Indicator: TA100, Metabolic Activation: NONE, Method: STANDARD PLATE
[3] = Test System: AMES SALMONELLA TYPHIMURIUM, Strain/Indicator: TA100, Metabolic Activation: RAT, LIVER, S-9, AROCLOR 1254, Method: PREINCUBATION
[4] = Test System: AMES SALMONELLA TYPHIMURIUM, Strain/Indicator: TA98, Metabolic Activation: NONE, Method: STANDARD PLATE
[5] = Test System: AMES SALMONELLA TYPHIMURIUM, Strain/Indicator: TA98, Metabolic Activation: RAT, LIVER, S-9, AROCLOR 1254, Method: STANDARD PLATE
[6] = Test System: AMES SALMONELLA TYPHIMURIUM, Strain/Indicator: TA100, Metabolic Activation: RAT, LIVER, S-9, AROCLOR 1254, Method: STANDARD PLATE
[7] = Test System: AMES SALMONELLA TYPHIMURIUM, Strain/Indicator: TA1535, Metabolic Activation: NONE, Method: STANDARD PLATE
[8] = Test System: AMES SALMONELLA TYPHIMURIUM, Strain/Indicator: TA1535, Metabolic Activation: RAT, LIVER, S-9, AROCLOR 1254, Method: STANDARD PLATE
[9] = Test System: AMES SALMONELLA TYPHIMURIUM, Strain/Indicator: TA97, Metabolic Activation: NONE, Method: STANDARD PLATE

Measured: mutagenic call

Cc1cc(C(C#N)c2ccc(Cl)cc2)c(Cl)cc1NC(=O)c1cc(I)cc(I)c1O (centres undefined)
active: End Point: In vivo chromosomal aberrations, Test System: Bone marrow cells, Species: Mouse, Strain/Sex: Swiss/Male, Route: Intraperitoneal active; positive (structural changes)

COc1cc(O)c2c(=O)c3c(OC)cc4c(c3oc2c1OC)C1CCOC1O4 (centres undefined)
inactive: Test System: AMES SALMONELLA TYPHIMURIUM, Strain/Indicator: TA98, Metabolic Activation: RAT, LIVER, S-9, PHENOBARBITAL, Method: STANDARD PLATE inactive; negative | Test System: AMES SALMONELLA TYPHIMURIUM, Strain/Indicator: TA100, Metabolic Activation: RAT, LIVER, S-9, PHENOBARBITAL, Method: STANDARD PLATE inactive; negative

O=C(O)C(Cl)CCl (centres undefined)
inactive: [1] inactive; negative | Test System: AMES SALMONELLA TYPHIMURIUM, Strain/Indicator: TA2638, Metabolic Activation: NONE, Method: STANDARD PLATE inactive; negative | Test System: E. COLI, Strain/Indicator: WP2 (PKM101), Metabolic Activation: NONE, Method: STANDARD PLATE inactive; negative | Test System: E. COLI, Strain/Indicator: WP2 UVRA (PKM101), Metabolic Activation: NONE, Method: STANDARD PLATE inactive; negative

O=CNc1ccc(Oc2ccc(Cl)cc2)cc1
inactive: [2] inactive; negative
active: Test System: AMES SALMONELLA TYPHIMURIUM, Strain/Indicator: TA100, Metabolic Activation: RAT, LIVER, S-9, KANECLOR 500, Method: STANDARD PLATE active; positive

O=c1c2ccc(OCC3CO3)cc2sn1CC1CO1 (centres undefined)
active: [2] active; positive

Cc1cc2ccccc2c2cc3ccccc3cc12
active: Test System: AMES SALMONELLA TYPHIMURIUM, Strain/Indicator: TA100, Metabolic Activation: RAT, INTACT HEPATOCYTES, AROCLOR 1254, Method: PREINCUBATION active; positive | [3] active; positive | Test System: AMES SALMONELLA TYPHIMURIUM, Strain/Indicator: TA100, Metabolic Activation: RAT, NADPH-FORTIFIED HOMOGENIZED HEPATOCYTES, AROCLOR 1254, Method: PREINCUBATION active; positive | Test System: AMES SALMONELLA TYPHIMURIUM, Strain/Indicator: TA100, Metabolic Activation: RAT, SONICATED HEPATOCYTES, AROCLOR 1254, Method: PREINCUBATION active; positive

CC(C)C#N
inactive: End Point: In vitro chromosomal aberrations, Test System: Chinese hamster lung (CHL/IU) cells, Metabolic Activation: Rat, Liver, S9, Phenobarbital and 5,6-benzoflavone inactive; negative | Test System: Ames Salmonella typhimurium, Strain/Indicator: TA1535, Metabolic Activation: None, Method: Preincubation inactive; negative
active: Test System: Ames Salmonella typhimurium, Strain/Indicator: TA100, Metabolic Activation: None, Method: Preincubation active; positive | Test System: Ames Salmonella typhimurium, Strain/Indicator: TA100, Metabolic Activation: Rat, Liver, S9, Sodium phenobarbital and 5,6-benzoflavone (10%), Method: Preincubation active; positive | Test System: Ames Salmonella typhimurium, Strain/Indicator: TA1537, Metabolic Activation: None, Method: Preincubation active; positive | Test System: E. coli, Strain/Indicator: WP2uvrA/pKM101, Metabolic Activation: None, Method: Preincubation active; positive | Test System: E. coli, Strain/Indicator: WP2uvrA/pKM101, Metabolic Activation: Rat, Liver, S9, Sodium phenobarbital and 5,6-benzoflavone (10%), Method: Preincubation active; positive

CC(C(=O)O)c1ccc(Oc2nccs2)cc1 (centres undefined)
inactive: [4] inactive; negative | [5] inactive; negative | [2] inactive; negative | [6] inactive; negative | [7] inactive; negative | [8] inactive; negative | Test System: AMES SALMONELLA TYPHIMURIUM, Strain/Indicator: TA1537, Metabolic Activation: NONE, Method: STANDARD PLATE inactive; negative | Test System: AMES SALMONELLA TYPHIMURIUM, Strain/Indicator: TA1537, Metabolic Activation: RAT, LIVER, S-9, AROCLOR 1254, Method: STANDARD PLATE inactive; negative | Test System: E. COLI, Strain/Indicator: WP2, Metabolic Activation: NONE, Method: STANDARD PLATE inactive; negative | Test System: E. COLI, Strain/Indicator: WP2, Metabolic Activation: RAT, LIVER, S-9, AROCLOR 1254, Method: STANDARD PLATE inactive; negative | Test System: E. COLI, Strain/Indicator: WP2 UVRA, Metabolic Activation: NONE, Method: STANDARD PLATE inactive; negative | Test System: E. COLI, Strain/Indicator: WP2 UVRA, Metabolic Activation: RAT, LIVER, S-9, AROCLOR 1254, Method: STANDARD PLATE inactive; negative

COc1ccc(O)cc1
inactive: [9] inactive; negative | Test System: AMES SALMONELLA TYPHIMURIUM, Strain/Indicator: TA97, Metabolic Activation: S-9, Method: STANDARD PLATE inactive; negative | Test System: AMES SALMONELLA TYPHIMURIUM, Strain/Indicator: TA98, Metabolic Activation: HAMSTER, LIVER, S-9, AROCLOR 1254, Method: PREINCUBATION inactive; negative | Test System: AMES SALMONELLA TYPHIMURIUM, Strain/Indicator: TA98, Metabolic Activation: NONE, Method: PREINCUBATION inactive; negative | [4] inactive; negative | Test System: AMES SALMONELLA TYPHIMURIUM, Strain/Indicator: TA98, Metabolic Activation: RAT, LIVER, S-9, AROCLOR 1254, Method: PREINCUBATION inactive; negative | Test System: AMES SALMONELLA TYPHIMURIUM, Strain/Indicator: TA98, Metabolic Activation: S-9, Method: STANDARD PLATE inactive; negative | Test System: AMES SALMONELLA TYPHIMURIUM, Strain/Indicator: TA100, Metabolic Activation: HAMSTER, LIVER, S-9, AROCLOR 1254, Method: PREINCUBATION inactive; negative | Test System: AMES SALMONELLA TYPHIMURIUM, Strain/Indicator: TA100, Metabolic Activation: NONE, Method: PREINCUBATION inactive; negative | [2] inactive; negative | [3] inactive; negative | Test System: AMES SALMONELLA TYPHIMURIUM, Strain/Indicator: TA100, Metabolic Activation: S-9, Method: STANDARD PLATE inactive; negative | [1] inactive; negative | Test System: AMES SALMONELLA TYPHIMURIUM, Strain/Indicator: TA102, Metabolic Activation: S-9, Method: STANDARD PLATE inactive; negative | Test System: AMES SALMONELLA TYPHIMURIUM, Strain/Indicator: TA1535, Metabolic Activation: HAMSTER, LIVER, S-9, AROCLOR 1254, Method: PREINCUBATION inactive; negative | Test System: AMES SALMONELLA TYPHIMURIUM, Strain/Indicator: TA1535, Metabolic Activation: NONE, Method: PREINCUBATION inactive; negative | Test System: AMES SALMONELLA TYPHIMURIUM, Strain/Indicator: TA1535, Metabolic Activation: RAT, LIVER, S-9, AROCLOR 1254, Method: PREINCUBATION inactive; negative | Test System: AMES SALMONELLA TYPHIMURIUM, Strain/Indicator: TA1537, Metabolic Activation: HAMSTER, LIVER, S-9, AROCLOR 1254, Method: PREINCUBATION inactive; negative | Test System: AMES SALMONELLA TYPHIMURIUM, Strain/Indicator: TA1537, Metabolic Activation: NONE, Method: PREINCUBATION inactive; negative | Test System: AMES SALMONELLA TYPHIMURIUM, Strain/Indicator: TA1537, Metabolic Activation: RAT, LIVER, S-9, AROCLOR 1254, Method: PREINCUBATION inactive; negative | Test System: E.COLI, Strain/Indicator: WP2 (PKM101), Metabolic Activation: NONE, Method: STANDARD PLATE inactive; negative | Test System: E.COLI, Strain/Indicator: WP2 (PKM101), Metabolic Activation: S-9, Method: STANDARD PLATE inactive; negative

c1ccc2c(c1)ccc1c3c(ccc12)CCC3
inactive: [2] inactive; negative | [6] inactive; negative

O[C@@H]1C=CC=C[C@H]1O
inactive: [9] inactive; negative | [4] inactive; negative | [5] inactive; negative | [2] inactive; negative | [7] inactive; negative | Test System: CHINESE HAMSTER V-79, Strain/Indicator: V-79/6-THIOGUANINE, Metabolic Activation: NONE inactive; negative
active: [8] active; positive
